Data published in patent US20170348258A1, “3-Amino Benzamide Derivative Serving As B-Lactam Auxiliary Antibiotic, Preparation Method and Use Thereof” (THE HONG KONG POLYTECHNIC UNIVERSITY, priority 2014, published 2017).
Values after ≈ are worked out from the molar mass of the structure shown.

What was measured:
S. aureus FtsZ = target: T1, S. aureus FtsZ (Staphylococcus aureus, UniProt P0A031); test: Transmission electron microscopy of FtsZ polymer morphology; type: biochemical; details: 100 μM compound, GTP 1 mM, 37° C. 15 minutes
T1 construct: inferred from capture on a nickel chelating column and imidazole elution; made in house; host or cells: E. coli BL21
T1 sequence (P0A031 1-390): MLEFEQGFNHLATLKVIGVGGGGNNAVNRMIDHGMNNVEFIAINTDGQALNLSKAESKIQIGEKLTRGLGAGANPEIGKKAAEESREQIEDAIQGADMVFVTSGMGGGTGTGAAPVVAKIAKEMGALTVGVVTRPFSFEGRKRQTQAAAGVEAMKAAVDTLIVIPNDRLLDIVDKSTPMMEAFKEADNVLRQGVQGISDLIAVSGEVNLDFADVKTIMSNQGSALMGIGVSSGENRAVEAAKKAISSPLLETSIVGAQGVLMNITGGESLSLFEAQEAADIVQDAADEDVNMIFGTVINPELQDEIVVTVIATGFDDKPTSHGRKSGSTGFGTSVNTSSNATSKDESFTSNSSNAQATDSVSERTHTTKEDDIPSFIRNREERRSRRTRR
Method: TEM provides a direct observation of FtsZ polymer morphology. Two promising compounds F332 and F361 were chosen for testing. S. aureus FtsZ ([…]) was incubated with the compounds at different concentrations in 50 mM MOPS buffer (pH 6.5) at 25° C. for 10 minutes. The control contained 1% DMSO only. KCl (final concentration: 50 mM) and MgCl2 (final concentration: 5 mM) were then added to the mixture. The mixture was incubated with GTP (final concentration: 1 mM) at 37° C. for 15 minutes. 10 μL reaction mixtures were applied on a glow-discharged Formvar carbon-coated copper grid (400 meshes) at 25° C. for 10 minutes. 10 μL of 0.5% phosphotungistic acid (PTA) was applied on the copper grid in order to negatively stain the proteins. The copper grid was allowed to air dry overnight.

[1] = tested on: LCC6 (wild type breast cancer cell line); test: Cytotoxicity test (MTS/PMS); type: cell-based; details: LCC-6, 72 h; 3 days at 37° C.
Excerpt: (§1) The bacterial strains used in microbial susceptibility test were E. coli, S. aureus 29213 and B. subtilis 168. E. coli and S. aureus 29213 were obtained from the laboratory of the Hong Kong Polytechnic University. B. subtilis 168 was purchased from American Type Culture Collection (USA). The mammalian cell lines L929 (mouse peritoneal fibroblast), LCC6 (a wild type breast cancer cell line), LCC6MDR (P-gp over-expressed breast cancer cell line) were stocks in our department. Nutrient Agar, tryptone and yeast extract were purchased from Oxoid Limited (Nepean, Ontario, Canada). Luria-Bertani (LB) medium was prepared from 2 g tryptone, 1 g yeast extract, and 2 g sodium chloride in 200 ml deionized water and sterilized. Müller-Hinton broth (MHB), cation-adjusted Müller-Hinton broth (MHB) and trypticase soy broth (TSB) for microbial susceptibility test were purchased from Becton, Dickinson and Company (New Jersey, USA). A microplate reader (Bio-Rad Laboratories Model 680) is used to measure bacterial growth and cytotoxicity. An Olympus FSX100® Bio Imaging Navigator Microscope was used to observe the morphology of B. subtilis cell. The cell lines used in cytotoxicity test were stocks in our department. In this assay, a mouse fibroblast cell line (L929), a wild type breast cancer cell line (LCC6) and a P-gp-over-expressed breast cancer cell line (LCC6MDR) were mixed with compounds of various concentrations and made up to a final volume of 100 μL in 96-well plates. The cells were then incubated at 37° C. for 3 days. […] The MTS/PMS mixture (10 μL) was added into each well, and the plate was incubated at 37° C. for 2 hours. The absorbance at 490 nm was then measured with a microplate absorbance reader (Bio-Rad). The IC50 values were calculated using GraphPad (Prism 4.0). The selective index of each compound was calculated from the ratio between the toxicity level of L929 and the MIC value of S. aureus 29213. […] Two promising compounds […] were chosen to test on three mammalian cell lines.

[2] = Cytotoxicity test (MTS/PMS); type: cell-based; details: human, LCC6MDR cells (P-gp over-expressed breast cancer cell line); 3 days at 37° C.
Excerpt: as §1

[3] = tested on: L929 (mouse fibroblast cell line); test: Cytotoxicity test (MTS/PMS); type: cell-based; details: L929, 72 h, 3 days at 37° C.
Excerpt: as §1

B. subtilis 168 = test: Antibacterial susceptibility test (MIC, microbroth dilution); type: cell-based; details: Bacillus subtilis, 168; 18 hours at 37° C., >90% inhibition of bacterial growth; read-out: MIC, BS 168
Excerpt: (§2) The bacterial strains used in microbial susceptibility test were E. coli, S. aureus 29213 and B. subtilis 168. E. coli and S. aureus 29213 were obtained from the laboratory of the Hong Kong Polytechnic University. B. subtilis 168 was purchased from American Type Culture Collection (USA). The mammalian cell lines L929 (mouse peritoneal fibroblast), LCC6 (a wild type breast cancer cell line), LCC6MDR (P-gp over-expressed breast cancer cell line) were stocks in our department. Nutrient Agar, tryptone and yeast extract were purchased from Oxoid Limited (Nepean, Ontario, Canada). Luria-Bertani (LB) medium was prepared from 2 g tryptone, 1 g yeast extract, and 2 g sodium chloride in 200 ml deionized water and sterilized. Müller-Hinton broth (MHB), cation-adjusted Müller-Hinton broth (MHB) and trypticase soy broth (TSB) for microbial susceptibility test were purchased from Becton, Dickinson and Company (New Jersey, USA). A microplate reader (Bio-Rad Laboratories Model 680) is used to measure bacterial growth and cytotoxicity. An Olympus FSX100® Bio Imaging Navigator Microscope was used to observe the morphology of B. subtilis cell.
(§3) The minimum inhibitory concentration (MIC) of each compound was determined using microbroth dilution method according to the National Committee for Clinical Laboratory Standards (CLSI) guidelines. All Compounds were dissolved in DMSO and diluted in a serial two-fold manner. A single colony of bacterial strain on a TSB agar plate was inoculated in 5 mL MHB or CA-MHB. The bacterial cells were incubated at 37° C. until the optimal density (OD600) of the growing cells reached 1.0. The cells were then diluted to a final concentration of approximately 5×10^5 CFU/mL in a serial two-fold manner in a 96-well microtiter plate (Iwaki, Japan). Compound 3 and PC190723 were used as positive controls. […] Table 1 below summarizes the MIC of all synthesized compounds.

E. coli = test: as above; type: cell-based; details: Escherichia coli; 18 hours at 37° C., >90% inhibition of bacterial growth
Excerpt: as §2, §3

S. aureus 29213 = test: as above; type: cell-based; details: Staphylococcus aureus, 29213; 18 hours at 37° C., >90% inhibition of bacterial growth
Excerpt: as §2, §3

MRSA strain 358 = test: FICI of F332 with antibiotics; type: cell-based, S. aureus

| SMILES | FtsZ polymer morphology (TEM) (S. aureus FtsZ) | IC50 [1] | IC50 at 3 days [2] | IC50 [3] | MIC (B. subtilis 168) | MIC (E. coli) | MIC (S. aureus 29213) | FICI of F332 combined with Amoxicillin (MRSA strain 358) | FICI of F332 combined with Cefuroxime (MRSA strain 358) | FICI of F332 combined with Cloxacillin (MRSA strain 358) | FICI of F332 combined with Meropenem (MRSA strain 358) | FICI of F332 combined with Meticillin (MRSA strain 358) |
| --- | --- | --- | --- | --- | --- | --- | --- | --- | --- | --- | --- | --- |
| CCCCCCCCCNc1ccc(F)c(C(N)=O)c1F [Compound F332, 2,6-difluoro-3-(nonylamino)benzamide] | relatively short and straight single strand FtsZ protofilaments | 78 µM | > 100 µM | > 100 µM | 3.13 µM (≈ 0.934 µg/mL) | > 100 µM | 12.5 µM (≈ 3.73 µg/mL) | 0.27 | 1.13 | 1.06 | 129.0 | 0.25 |
| CCCCCCCCCN(C)c1ccc(F)c(C(N)=O)c1F [Compound F361, 2,6-difluoro-3-(methyl(nonyl)amino)benzamide] | relatively short and straight single strand FtsZ protofilaments | 60 µM | 52 µM | 60 µM | 1.57 µM (≈ 0.49 µg/mL) | > 100 µM | 3.13 µM (≈ 0.978 µg/mL) |  |  |  |  |  |
